Source: patent US20240245617A1, “LIPID-BASED TOPICAL INJECTION FORMULATIONS” (Beijing Jitai Pharmaceutical Technology Co., Ltd., priority 2022, published 2024)

Experiments:
C57BL/6 mice = assay: In vivo bioluminescence after intravenous administration of lipid nanoparticles encapsulating luciferase mRNA; details: 0.5 mg/kg mRNA, liver
Method: The delivery effect and safety of nanoparticles encapsulating luciferase mRNA (Trilink, L-7202) in mice were evaluated. The test mice were SPF-grade C57BL/6 mice, female, 6-8 weeks old, weighing 18-22 g, and were purchased from SPF (Beijing) Biotechnology Co., Ltd. All animals were acclimatized for more than 7 days prior to the experiment, and had free access to food and water during the experiment. The conditions include alternating light and dark for 12/12 h, the indoor temperature of 20-26° C. and the humidity of 40-70%. The mice were randomly grouped. The lipid nanoparticles encapsulating luciferase mRNA prepared above were injected into mice by intravenous administration at a single dose of 0.5 mg/kg mRNA, and the mice were subjected to in vivo bioluminescence assay using a Small Animal In Vivo Imaging System (IVIS LUMINA III, purchased from PerkinElmer) at 6 h after administration. The assay was performed as follows: D-luciferin solution was prepared in saline at a concentration of 15 mg/mL, and each mouse was given the substrate by intraperitoneal injection. At ten minutes after administration of the substrate, the mice were anesthetized in an anesthesia chamber with isoflurane at a concentration of 2.5%. […] Data acquisition and analysis were performed on the liver.
The in vivo delivery efficiency of lipid nanoparticle carriers was expressed as the mean values of fluorescence intensity and total photon count in different animals within the same subject group, as shown in Table 4. Higher values of fluorescence intensity and total photon count indicate higher in vivo delivery efficiency of this mRNA fragment by lipid nanoparticles. The lipid nanoparticles containing the cationic lipids of the present disclosure have good in vivo delivery efficiency and mainly target the liver.

[1] = Particle size and PDI of lipid nanoparticles by dynamic light scattering; type: physicochemical; details: LNP ionizable lipid/cholesterol/DSPC/DMG-PEG2000 50/38.5/10/1.5 mol%, N/P 6, luciferase mRNA
Method: (§1) The particle size and particle size dispersity index (polydispersity index, PDI) of the prepared lipid nanoparticles were measured using a Zetasizer Pro (purchased from Malvern Instruments Ltd) and a DynaPro NanoStar (purchased from Wyatt) dynamic light scattering instrument. The degree of RNA encapsulation by lipid nanoparticles was characterized by the Encapsulation Efficiency %, which reflects the degree of binding of lipid nanoparticles to RNA fragments. This parameter was measured by the method of Quant-it™ RiboGreen RNA Assay (purchased from Invitrogen). Lipid nanoparticle samples were diluted in TE buffer (10 mM Tris-HCl, 1 mM EDTA, pH=7.5). A portion of the sample solution was removed, to which 0.5% Triton (Triton X-100) was added, and then allowed to stand at […] for 30 minutes. Immediately after the addition of RIBOGREEN® reaction solution, the fluorescence values were read on a Varioskan LUX multifunctional microplate reader (purchased from Thermofisher) at 485 nm for absorption and 528 nm for emission to give the encapsulation efficiency values.
The preparation of lipid nanoparticles includes microfluidic mixing system, but is not limited to this method, which also includes T-type mixer and ethanol injection method, etc.

[2] = Encapsulation efficiency of lipid nanoparticles, Quant-it RiboGreen RNA Assay; type: physicochemical; details: LNP ionizable lipid/cholesterol/DSPC/DMG-PEG2000 50/38.5/10/1.5 mol%, N/P 6, luciferase mRNA
Method: as §1
The produced lipid nanoparticles were characterized using the same method as in Assay example 2, and the results are shown in Table 6 (the percentage content of each component is represented by molar percentage).

Particle size (nm) [1] [nm]	Particle size dispersity (PDI) [1]	Encapsulation efficiency (%) [2] [%]	Compound	Total photon count in vivo at 6 hours after administration (Total Flux) (C57BL/6 mice)
138.16	0.06	80.36	CCCC/C=C\CCCCOC(=O)C(C)(C)CCCCCC(CCCCCC(C)(C)C(=O)OCCCC/C=C\CCCC)OC(=O)CCCN(C)C [Compound 28]	3.21E+09
80.98	0.05	86.92	CCCCCCCCCSC(=O)C(C)(C)CCCCCC(CCCCCC(C)(C)C(=O)OCC#CC(CCCC)CCCC)OC(=O)CCCN(C)C (stereo not drawn) [Compound 119]	3.25E+10
103.57	0.06	93.62	CCCCCCCCCSC(=O)C(C)(C)CCCCCC(CCCCCC(C)(C)C(=O)OCC#CCC(CCCC)CCCC)OC(=O)CCCN(C)C (stereo not drawn) [Compound 121]	>4.00E+10
